From paper PMC7805210, “Study on suitable analysis method for HIV-1 non-catalytic integrase inhibitor” (Virology Journal, 2021)

What was measured:
[1] = Cell cytotoxicity by WST method (EZ-Cytox) in TZM-bl cells; type: cell-based; settings: human, 2 days incubation
Description: (§1) To determine the cytotoxicity of anti-HIV drugs, cell viability was assessed via the water-soluble tetrazolium salt (WST) method using an EZ-Cytox kit (Daeil Lab Service, Seoul, Korea) according to the manufacturer’s instructions. […] Cells were treated with serial dilutions of each drug ([…] dilutions from 50,000 to 2.54 nM). On days 2 and 5 of incubation, 10 μl EZ-Cytox solution was added to each well and incubated for 2 h, followed by spectrophotometric measurement of absorbance at 540 nm.

[2] = biological target: integrase strand transfer; settings: does not inhibit strand transfer; cited from earlier work
[3] = biological target: T1, HIV-1 integrase (Human immunodeficiency virus type 1 group M subtype B, UniProt P04585); experiment: Strand transfer inhibition assay (HIV-1 integrase assay kit); type: biochemical; settings: read-out: strand transfer inhibitory activity
T1 construct: 100 μl IN enzyme solution was added to each well; purchased XpressBio, Frederick, MD
Description: The strand transfer assay was performed using the HIV-1 integrase assay kit (XpressBio, Frederick, MD) according to the manufacturer’s instructions. Briefly, 100 μl of 1X donor substrate DNA (DS DNA) solution was added to each well and incubated for 30 min at 37 °C. The liquid was aspirated from the wells and washed 5 times with 300 μl wash buffer, followed by incubation with 200 μl blocking buffer per well for 30 min at 37 °C. Following aspiration of the liquid, wells were washed three times with 200 μl reaction buffer. Next, 100 μl IN enzyme solution was added to each well and incubated under similar conditions followed by removal of liquid and three washes with 200 μl reaction buffer. Each test sample was fivefold serially diluted (from 1000 to 8 μM) in reaction buffer and 50 μl aliquots added per well. After 5 min incubation at room temperature, 50 μl 1X target substrate DNA (TS DNA) solution was directly added to the 50 μl test sample within the wells. Reactions were mixed by tapping the plate gently 3–5 times and incubating for 30 min at 37 °C, washed 5 times with 300 μl wash solution and incubated with 100 μl HRP antibody for 30 min at 37 °C. After washing the plate under the same conditions, 100 μl TMB peroxidase substrate solution was added per well and incubated for 10 min at room temperature. To terminate the reaction, 100 μl TMB stop solution was directly added to wells and absorbance read using a plate reader at 450 nm.
Fig.3 Strand transfer inhibition efficiency of catalytic and non-catalytic integrase inhibitors. a Schematic diagram of the strand transfer assay process. The yellow and blue boxes represent the response under conditions of no IN inhibitor or INSTI, respectively. b Integrase inhibitor compounds at a range of concentrations generated from fivefold serial dilutions were used to treat 3′-end cleaved LTR DS DNA by integrase. After incubation, TS DNA was added to each well for the strand transfer reaction. The reaction products were detected colorimetrically using a HRP-labeled antibody against modified target DNA. "No integrase" and "Integrase only" wells were set as the negative and positive control, respectively

[4] = system: HxB2, NL4.3 and a recombinant NL4.3 strain; settings: against HxB2, NL4.3 and a recombinant NL4.3 strain; cited from earlier work
[5] = system: HIV-1 AD8 strain; experiment: Antiviral activity test using the TZM-bl cell luciferase system; settings: for EC50: Human immunodeficiency virus 1, TZM-bl, 48 h
Description: TZM-bl cells were seeded on 96-well cell culture plates at a density of 1 × 10^4 cells/well and cultured overnight. Each drug was twofold serially diluted from 10,000 to 0.15 nM and treated to cells. After a 30 min incubation period, viral infection was performed with 500 TCID50 of HIV-1 AD8. Cells were cultured for 48 h after infection and luciferase activity measured using Beetle-Lysis Juice (PJK GmbH, Kleinblittersdorf, Germany) according to the manufacturer’s instructions. Briefly, the medium was removed, and cells washed three times with 200 μl PBS. Next, 100 μl Beetle-Lysis Juice containing luciferin and ATP were added to each well and incubated for 5 min with protection from sunlight. Subsequently, luciferase activity was measured using a micro beta counter (PerkinElmer, Waltham, MA) after transferring solutions to a white 96-well plate. Anti-HIV efficacy of drugs was determined based on reduced expression of luciferase relative to the virus-only treatment group.
Fig.1 Determination of antiviral activities of integrase inhibitors in the TZM-bl cell line system. Integrase inhibitors were serially diluted and incubated with 1 × 10^4 TZM-bl cells per well during 30 min, followed by infection with 500 TCID50 of HIV-1 AD8 strain. For determination of antiviral efficacy, luciferase activity was measured after 48 h of incubation. Cell culture media of non-infected and infected cells without HIV drug treatment were set as the negative and positive control, respectively.

[6] = system: HIV-1 AD8 strain; experiment: p24 ELISA antiviral activity in infected MT2 cells; settings: for EC50: Human immunodeficiency virus 1, MT2, 120 h; for SI value (CC50/EC50): MT2 cell system
Description: ELISA was conducted to detect HIV-1 p24 for assessment of antiviral activity using a HIV-1 p24 ELISA kit (XpressBio, Frederick, MD). To this end, MT2 cells seeded on a 96-well cell culture plate at a density of a 1 × 10^4 cells/well were infected with 500 TCID50 of HIV-1 AD8 strain. Each drug was serially diluted threefold (from 10,000 to 0.51 nM) for treatment of cells. After five days of culture at 37 °C with 5% CO2, 100 μl of culture medium was harvested and supernatant obtained by centrifugation for 5 min at 5000 rpm (8400 rcf), with storage at − 80 °C. Cell culture media of non-infected and infected cells without INI treatment were set as the negative and positive control, respectively. The ELISA procedure was conducted according to the manufacturer’s instructions. Briefly, samples were mixed with 20 μl lysis buffer, 200 μl aliquots pipetted into a microplate, and incubated for 1 h at 37 °C. After incubation, the contents of the wells were aspirated and microtitration plates washed six times with 350 μl wash buffer. Each well was treated with 100 μl detection antibody for 1 h at 37 °C, which was subsequently removed by washing under the same conditions. An aliquot (100 μl) of streptavidin-HRP conjugate was added into each well, followed by incubation at room temperature for 30 min. After washing under the same conditions, 100 μl substrate solution was immediately dispensed into each well and incubated for 30 min at room temperature with protection from direct sunlight. For termination of the reaction, 100 μl stop solution was added to each well and absorbance values at 450 nm immediately read using a microplate reader.
MT2 cells infected with 500 TCID50 of HIV-1 AD8 strain were treated with a range of concentrations of each drug. At 5 days post-infection, cell culture media were harvested for p24 ELISA. Media of non-infected and infected cells without HIV drug treatment were set as the negative or positive control, respectively.

[7] = Cell cytotoxicity by WST method (EZ-Cytox) in MT2 cells; type: cell-based; settings: human, 5 days incubation
Description: as §1

[8] = biological target: T1, HIV-1 integrase; experiment: 3'-processing inhibition assay (modified strand transfer assay, inhibitor pre-incubated with IN); type: biochemical; settings: 20 nM IN pre-incubated 30 min
Description: To confirm the 3′-processing inhibition activity NCINI, the strand transfer inhibition assay was modified. The plate coating process with DS DNA was conducted in a similar manner. […] Reaction of integrase first with the drug before its reaction with DS DNA is a necessary step to validate the 3′-processing inhibitory activity of the compound. The integrase-inhibitor mixture was added to LTR DS DNA-conjugated 96-well plates. Subsequent steps were conducted in a similar manner as the strand transfer assay.
The subsequent steps were the same as the strand transfer assay protocol (Fig. 4a).
The 3′-processing inhibition assay was performed by modifying the protocol of the strand transfer assay. […] Before addition of LTR dsDNA, fivefold serially diluted integrase inhibitors were incubated with 20 nM integrase for 30 min. The integrase-inhibitor mixtures were treated with LTR dsDNA-conjugated 96-well plates. After incubation, target DNA was added to each well for the strand transfer reaction and the products detected colorimetrically using a HRP-labeled antibody against 3′-modified target DNA. "No integrase" and "integrase-only" wells were set as the negative and positive control, respectively

Structure (SMILES)	CC50 at 2 days [1]	EC50 [2]	inhibition at 8 µM [3]	inhibition at 1000 µM ([3]; at 1000 μM)	EC50 [4]	EC50 [5]	EC50 [6]	CC50 at 5 days [7]	IN inhibition activity (3'-processing, modified protocol) ([8]; at 3.2 μM)	IN inhibition activity (3'-processing, modified protocol) ([8]; at 2000 μM)	SI value (CC50/EC50) ([5]; TZM-bl cell system)	SI value (CC50/EC50) [6]
Cc1nc2ccccc2c(-c2ccc3c4c(ccnc24)CCO3)c1[C@H](OC(C)(C)C)C(=O)O [BI 224436]	> 50 µM	> 50 µM	20%	36%	11 to 27 nM	566 nM	28.7 nM	> 50000 nM	80.65%	87.14%		
Cc1nnc(C(=O)NC(C)(C)c2nc(C(=O)NCc3ccc(F)cc3)c(O)c(=O)n2C)o1 [RAL, Raltegravir]	> 50 µM		> 50%			10.4 nM	0.58 nM	6420 nM			> 4816.96	11,075.19
COc1cc2c(cc1Cc1cccc(Cl)c1F)c(=O)c(C(=O)O)cn2[C@H](CO)C(C)C [EVG, Elvitegravir]	26 µM					< 0.15 nM	< 0.51 nM	1260 nM				
C[C@@H]1CCO[C@H]2Cn3cc(C(=O)NCc4ccc(F)cc4F)c(=O)c(O)c3C(=O)N12 [DTG, Dolutegravir]	> 50 µM		> 50%			1.6 nM	< 0.51 nM	1740 nM				> 3413.60
